Columns and labels:
Jak2 = molecular target: T1, Jak2 (Homo sapiens, UniProt O60674); experiment: Tyrosine kinase assay (Kinase-Glo or AlphaScreen), Jak2; details: biochemical tyrosine kinase assay
T1 construct: 6×His- or GST-tagged kinase domain fragments of the corresponding RTKs expressed in baculovirus system; host or cells: baculovirus system
Method: (§1) To determine inhibition of several tyrosine kinases, such as IGF1R, InsR, Alk, TrkA and Jak2, kinase assays are conducted using either Kinase-Glo (Promega) or AlphaScreen (PerkinElmer) kinase assay platforms. The Kinase-Glo Luminescent Kinase Assay is a homogeneous method for measuring kinase activity by determining the amount of ATP remaining after a kinase reaction. The luminescent signal is proportional to the amount of ATP and inversely proportional to the amount of kinase activity. Tyrosine kinase PT66 AlphaScreen Assay is a high-sensitivity homogeneous, anti-phosphotyrosine antibody-mediated luminescent proximity method measuring, incorporation of phosphate in synthetic poly(Glu-Tyr) substrate. The kinase preparations used consist of purified recombinant, 6×His- or GST-tagged kinase domain fragments of the corresponding RTKs expressed in baculovirus system.
(§2) The IGF1R tyrosine kinase is assayed in Kinase-Glo ATP depletion assay using the synthetic polymer poly(Glu-Tyr, 4:1) (Sigma Chemicals) as a phosphoacceptor substrate. Each reaction mixture consists of a total volume of 10 μl and contains 40 ng of the enzyme, 5 μg of poly(Glu-Tyr), 10 μM of ATP and variable concentrations of test compounds. The mixtures also contain 50 mM Tris-HCl, pH 7.5; 5 mM MgCl2; 5 mM MnCl2; 2 mM DTT and 0.01% Tween 20. The reaction mixtures are incubated at 37° C. for 60 minutes and residual concentration of ATP in the mixture is determined by adding luciferase-containing Kinase-Glo (Promega) development reagent and counting luminescence levels using Fusion Universal Microplate Analyzer (PerkinElmer). Tested compounds are dissolved in dimethyl sulfoxide to a stock concentration of 10 mM and are typically evaluated in the assay at eight concentrations in 1 nM to 20 μM range, each in quadruplicate. […] IC50 values are derived by non-linear regression analysis using Prism 3.0 software (Graphpad Software). Other tyrosine kinases are assayed according to the same protocol after titrating amount of the enzyme to provide optimal signal-to-noise ratio and no more than 30% of total ATP consumption in the reaction conditions used.
(§3) The IGF1R tyrosine kinase is assayed in Phosphotyrosine (PT66 or PT 100) AlphaScreen chemiluminescent assay (PerkinElmer) according to the manufacturerer's recommendations. Each kinase reaction mixture consists of a total volume of 15 μl and contains 0.1-1 ng of the enzyme, 7 ng of biotinylated poly(Glu-Tyr) (Cis-Bio), 10 μM of ATP and variable concentrations of test compounds. The mixtures also contain 50 mM Tris-HCl, pH 7.5; 5 mM MgCl2; 5 mM MnCl2; 2 mM DTT and 0.01% Tween 20. The reaction mixtures are incubated at room temperature for 30 minutes. Ten (10) μl of the mixture of […] and donor beads (as supplied by the manufacturer) is then added to the reaction and the incubation is continued for an additional 60 minutes.

InsR = molecular target: T2, InsR (Homo sapiens, UniProt P06213); experiment: Tyrosine kinase assay (Kinase-Glo or AlphaScreen), InsR; details: biochemical tyrosine kinase assay
T2 construct: 6×His- or GST-tagged kinase domain fragments of the corresponding RTKs expressed in baculovirus system; host or cells: baculovirus system
Method: as §1, §2, §3

IGF1R tyrosine kinase = molecular target: T3, IGF1R tyrosine kinase (Homo sapiens, UniProt P08069); experiment: IGF1R tyrosine kinase assay (Kinase-Glo ATP depletion or PT66/PT100 AlphaScreen); details: biochemical tyrosine kinase assay
T3 construct: 6×His- or GST-tagged kinase domain fragments of the corresponding RTKs expressed in baculovirus system; host or cells: baculovirus system
Method: as §1, §2, §3

K562 = experiment: Cell proliferation inhibition, Cell Titer-Glo, K562; format: cell-based; details: Homo sapiens; cell proliferation assay, K562 cells
Excerpt: (§4) IGF1R and other tyrosine kinase inhibitors can inhibit the proliferation of certain cancer cell lines indicating their possible therapeutic utility for treating the corresponding cancer types. Cancer cell lines of interest and control normal lines, including CHO, HEK293, BA/F3, COLO205, PC3, DU145, MCF7, Panc1, ACHN, Hep G2, H460, K562, TT, U87-MG, CAOV-3, SK-MEL5, Karpas 299 and human multiple myeloma cell lines H929, MM1s, MM1r, UTMC2, CPM2, KMS11, My5, KMS12PE, My7, JJN3, KMS18, U266, SKMM2, RPMI-8226 are plated in white, clear-bottomed 384-well cell culture plates at 2500-5000 cells per well and supplied with dilutions of tested compounds After a desired period of time (typically 3 days), the number of viable cells is quantitated by using Cell Titer-Glo Luminescent Cell Viability Assay (Promega), a cell proliferation assay system based on detection of total amount of ATP present as a measure of cell metabolic activity. The plated cells are mixed with the Cell Titer-Glo developing reagent and counted in a luminescence multiwell plate reader according to the standard manufacturer's protocol to generate IC50 curves for cell proliferation inhibition. Results are typically reported as percent of growth (% viability =(OD72h(compound)−ODday0))/(OD72h(no compound)−ODday0). Alternatively, viable cells are quantitated by using the conventional colorimetric MTT assay. The MTT assay is based on the cleavage of the yellow tetrazolium salt MTT to purple formazan crystal by metabolic active cells. The formazan is then solubilized, and the concentration determined by optical density at 570 nm. The cells plated and incubated with a compound as described above are supplemented with the solution of MTT and incubated for 2-3 hours. The growth medium is removed and dimethyl sulfoxide is added into each well to dissolve the formazan. The absorbance is measured on an ELISA plate reader with a test wavelength of 570 nm and a background subtraction wavelength of 630 nm to obtain sample signal (OD570-OD630). […] The results are reported in terms of IC50 value for a particular compound and a cell line in the standard 3-day proliferation assay using Cell Titer-Glo. […] The results are reported in terms of IC50 value for a particular compound and a cell line in the standard 3-day proliferation assay using MTT assay.

Karpas-299 = experiment: Cell proliferation inhibition, Cell Titer-Glo, Karpas-299; format: cell-based; details: Homo sapiens; cell proliferation assay, Karpas-299 cells
Excerpt: as §4

Ba/F3 = experiment: Cell proliferation inhibition, Cell Titer-Glo, Ba/F3; format: cell-based; details: Mus musculus, BaF3; cell proliferation assay, Ba/F3 cells
Excerpt: as §4

Alk = molecular target: T4, Alk (Homo sapiens, UniProt Q9UM73); experiment: Tyrosine kinase assay (Kinase-Glo or AlphaScreen), Alk; details: biochemical tyrosine kinase assay
T4 construct: 6×His- or GST-tagged kinase domain fragments of the corresponding RTKs expressed in baculovirus system; host or cells: baculovirus system
Method: as §1, §2, §3

T4 sequence (Q9UM73 1116-1392 limits assumed, species assumed): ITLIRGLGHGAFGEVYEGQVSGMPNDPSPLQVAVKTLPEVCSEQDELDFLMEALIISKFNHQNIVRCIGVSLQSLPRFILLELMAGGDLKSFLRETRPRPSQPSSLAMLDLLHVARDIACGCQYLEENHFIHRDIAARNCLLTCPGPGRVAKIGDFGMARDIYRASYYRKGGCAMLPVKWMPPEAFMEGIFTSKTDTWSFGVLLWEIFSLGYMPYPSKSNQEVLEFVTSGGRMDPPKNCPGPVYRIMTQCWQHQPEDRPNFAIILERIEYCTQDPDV
T1 sequence (O60674 849-1124 limits assumed, species assumed): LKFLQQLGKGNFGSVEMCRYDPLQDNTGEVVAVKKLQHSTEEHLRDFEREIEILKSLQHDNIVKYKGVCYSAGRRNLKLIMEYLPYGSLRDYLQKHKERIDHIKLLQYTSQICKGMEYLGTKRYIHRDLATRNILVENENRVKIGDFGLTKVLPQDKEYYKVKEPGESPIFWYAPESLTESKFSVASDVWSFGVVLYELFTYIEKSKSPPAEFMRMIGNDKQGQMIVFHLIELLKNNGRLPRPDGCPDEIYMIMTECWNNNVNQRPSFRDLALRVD
T2 sequence (P06213 1023-1298 limits assumed, species assumed): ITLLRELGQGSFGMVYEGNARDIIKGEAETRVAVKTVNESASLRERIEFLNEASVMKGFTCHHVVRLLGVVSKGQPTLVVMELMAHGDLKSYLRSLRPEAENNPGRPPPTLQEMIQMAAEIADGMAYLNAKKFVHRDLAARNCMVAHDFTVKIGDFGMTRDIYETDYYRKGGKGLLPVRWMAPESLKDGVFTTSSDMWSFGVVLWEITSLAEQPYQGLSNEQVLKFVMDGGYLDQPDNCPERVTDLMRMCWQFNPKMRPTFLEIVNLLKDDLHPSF
T3 sequence (P08069 999-1274 limits assumed): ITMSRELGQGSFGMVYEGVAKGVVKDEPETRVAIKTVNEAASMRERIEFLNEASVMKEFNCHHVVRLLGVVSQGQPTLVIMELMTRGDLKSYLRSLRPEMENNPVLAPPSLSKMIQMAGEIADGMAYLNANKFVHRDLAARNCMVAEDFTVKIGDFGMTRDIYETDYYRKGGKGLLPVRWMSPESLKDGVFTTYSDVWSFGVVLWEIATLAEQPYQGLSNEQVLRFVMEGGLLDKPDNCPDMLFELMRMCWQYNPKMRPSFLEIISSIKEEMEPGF

| Structure (SMILES) | IC50 (Jak2) [µM] | IC50 (InsR) [µM] | IC50 (IGF1R tyrosine kinase) [µM] | IC50 (K562) [µM] | IC50 (Karpas-299) [µM] | IC50 (Ba/F3) [µM] | IC50 (Alk) [µM] |
| --- | --- | --- | --- | --- | --- | --- | --- |
| CN(C)CC(C)(C)CN1C(=O)c2cc3nc(-c4c(NC[C@@H](O)c5cccc(Cl)c5)ccnc4O)[nH]c3cc2C1=O [compound 60] | 0.5 to 5 | 0.5 to 5 | 0.5 to 5 | > 15 | > 15 | > 15 | 5 to 15 |
| Cc1cccc(OCC(O)CNc2cc[nH]c(=O)c2-c2nc3cc4c(cc3[nH]2)C(=O)N(C2CCN(C)CC2)C4=O)c1 (stereo not drawn) [compound 105] | 0.5 to 5 | 0.5 to 5 | 0.5 to 5 | 5 to 15 | > 15 | > 15 | 5 to 15 |
| Cc1ccc(OC[C@H](O)CNc2ccnc(O)c2-c2nc3cc4c(cc3[nH]2)C(=O)N(C2CCN(C)CC2)C4=O)c(C)n1 [compound 68] | 0.5 to 5 | 0.5 to 5 | < 0.5 | > 15 | > 15 | > 15 | 5 to 15 |
| O=C1c2cc3nc(-c4c(NC[C@@H](O)c5cccc(Cl)c5)ccnc4O)[nH]c3cc2C(=O)N1CCN1CCOCC1 [compound 8] | 0.5 to 5 | 0.5 to 5 | 0.5 to 5 | > 15 | > 15 | > 15 | 0.5 to 5 |
| CN1CCC(N2C(=O)c3cc4nc(-c5c(NNC(=O)C(O)c6ccccc6)ccnc5O)[nH]c4cc3C2=O)CC1 (stereo not drawn) [compound 67] | 0.5 to 5 | 5 to 15 | > 15 | > 15 | > 15 | > 15 | 5 to 15 |
| CN1CCC(N2C(=O)c3cc4nc(-c5c(NC[C@@H](O)COc6cccc(Br)c6)ccnc5O)[nH]c4cc3C2=O)CC1 [compound 76] | 0.5 to 5 | 0.5 to 5 | 0.5 to 5 | 0.5 to 5 | 0.5 to 5 | 0.5 to 5 | 0.5 to 5 |
| O=C1c2cc3nc(-c4c(NC[C@@H](O)c5cccc(Cl)c5)cc[nH]c4=O)[nH]c3cc2C(=O)N1CCO [compound 43] | 0.5 to 5 | 0.5 to 5 | 0.5 to 5 | 5 to 15 | 5 to 15 | > 15 | > 15 |
| Cc1ccc(Cl)cc1OC[C@H](O)CNc1ccnc(O)c1-c1nc2cc3c(cc2[nH]1)C(=O)N(C1CCN(C)CC1)C3=O [compound 55] | 0.5 to 5 | 0.5 to 5 | < 0.5 | 0.5 to 5 | 0.5 to 5 | 0.5 to 5 | 0.5 to 5 |
| CN(C)CCN1CCC(N2C(=O)c3cc4nc(-c5c(NC[C@@H](O)COc6c(F)ccc(Cl)c6F)cc[nH]c5=O)[nH]c4cc3C2=O)CC1 [compound 128] | 0.5 to 5 | 0.5 to 5 | < 0.5 | > 15 | > 15 | > 15 | 0.5 to 5 |
| CN1CCC(N2C(=O)c3cc4nc(-c5c(NCC(O)COc6ccc(Cl)cc6)cc[nH]c5=O)[nH]c4cc3C2=O)CC1 (stereo not drawn) [compound 39] | 0.5 to 5 | 0.5 to 5 | 0.5 to 5 | 0.5 to 5 | 0.5 to 5 | 0.5 to 5 | 0.5 to 5 |
| CN1CCC(N2C(=O)c3cc4nc(-c5c(NC[C@@H](O)COc6cccc7c6OC(F)(F)C(F)O7)cc[nH]c5=O)[nH]c4cc3C2=O)CC1 (stereo partly drawn) [compound 83] | 0.5 to 5 | < 0.5 | < 0.5 | > 15 | > 15 | > 15 | 0.5 to 5 |
| CN(C)CCc1ncccc1OC[C@H](O)CNc1ccnc(O)c1-c1nc2cc3c(cc2[nH]1)C(=O)N(C1CCN(C)CC1)C3=O [compound 72] | 0.5 to 5 | 0.5 to 5 | 0.5 to 5 | > 15 | > 15 | > 15 | 0.5 to 5 |
| CN1CCC(N2C(=O)c3cc4nc(-c5c(NC[C@@H](O)Cn6cnc7ccccc76)ccnc5O)[nH]c4cc3C2=O)CC1 [compound 49] | 0.5 to 5 | 0.5 to 5 | 0.5 to 5 | > 15 | > 15 | > 15 | 0.5 to 5 |
| CN1CCC(N2C(=O)c3cc4nc(-c5c(NC[C@@H](O)COc6cccnc6)ccnc5O)[nH]c4cc3C2=O)CC1 [compound 70] | 0.5 to 5 | 5 to 15 | 5 to 15 | > 15 | > 15 | > 15 | 5 to 15 |
| CC(C)CNCC(O)CNc1ccnc(O)c1-c1nc2cc3c(cc2[nH]1)C(=O)N(C1CCN(C)CC1)C3=O (stereo not drawn) [compound 66] | > 15 | > 15 | > 15 | > 15 | > 15 | > 15 | > 15 |

— US8063225B2, “Tricyclic compound derivatives useful in the treatment of neoplastic diseases, inflammatory disorders and immunomodulatory disorders” (Chembridge Corporation, priority 2006, dated 2011)
